Measured values: ChEMBL document CHEMBL2016558, “CB 1/2 dual agonists with 3-carbamoyl 2-pyridone derivatives as antipruritics: reduction of CNS side effects by introducing polar functional groups” (Bioorg Med Chem Lett, 2012)

What was measured:
Mus musculus [1] = test: Toxicity in ICR mouse assessed as CB1-mediated spasm, rigor at 0.1 to 1 mg/kg, iv after 15 mins; assay type: organism-based; set-up: dose 0.1-1 mg/kg, route intravenous; conditions: in vivo, 0.25 h
Mus musculus [2] = test: Toxicity in ICR mouse assessed as CB1-mediated moving sluggishly at 0.1 to 1 mg/kg, iv after 15 mins; assay type: organism-based; set-up: dose 0.1-1 mg/kg, route intravenous; conditions: in vivo, 0.25 h
Mus musculus [3] = test: Toxicity in ICR mouse assessed as CB1-mediated stretching the without moving at 0.1 to 1 mg/kg, iv after 15 mins; assay type: organism-based; set-up: dose 0.1-1 mg/kg, route intravenous; conditions: in vivo, 0.25 h
Cannabinoid receptor 1 = Cannabinoid receptor 1 (Homo sapiens, UniProt P21554); test: Displacement of [3H]-CP55940 from recombinant human CB1 receptor by scatchard plot analysis
Chain of Cannabinoid receptor 1 (P21554 whole entry): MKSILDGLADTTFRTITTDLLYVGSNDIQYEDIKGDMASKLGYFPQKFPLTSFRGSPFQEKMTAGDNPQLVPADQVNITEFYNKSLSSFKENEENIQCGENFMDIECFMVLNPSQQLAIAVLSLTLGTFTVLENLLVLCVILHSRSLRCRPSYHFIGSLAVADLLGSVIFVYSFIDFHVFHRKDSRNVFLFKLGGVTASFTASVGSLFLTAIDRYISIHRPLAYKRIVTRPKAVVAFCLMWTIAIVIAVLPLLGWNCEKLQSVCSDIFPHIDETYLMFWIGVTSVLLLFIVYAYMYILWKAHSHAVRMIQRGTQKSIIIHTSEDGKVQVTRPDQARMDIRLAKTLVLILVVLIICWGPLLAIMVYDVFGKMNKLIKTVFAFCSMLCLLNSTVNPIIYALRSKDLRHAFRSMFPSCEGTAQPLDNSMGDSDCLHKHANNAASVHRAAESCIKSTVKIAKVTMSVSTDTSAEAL

Mus musculus [4] = test: Toxicity in ICR mouse assessed as CB1-mediated walking with lying on the belly at 0.1 to 1 mg/kg, iv after 15 mins; assay type: organism-based; set-up: dose 0.1-1 mg/kg, route intravenous; conditions: in vivo, 0.25 h
Mus musculus [5] = test: Toxicity in ICR mouse assessed as CB1-induced catalepsy at 0.1 to 1 mg/kg, iv after 15 mins; assay type: organism-based; set-up: dose 0.1-1 mg/kg, route intravenous; conditions: in vivo, 0.25 h
Cannabinoid receptor 2 = Cannabinoid receptor 2 (Homo sapiens, UniProt P34972); test: Displacement of [3H]-CP55940 from recombinant human CB2 receptor by scatchard plot analysis
Chain of Cannabinoid receptor 2 (P34972 whole entry): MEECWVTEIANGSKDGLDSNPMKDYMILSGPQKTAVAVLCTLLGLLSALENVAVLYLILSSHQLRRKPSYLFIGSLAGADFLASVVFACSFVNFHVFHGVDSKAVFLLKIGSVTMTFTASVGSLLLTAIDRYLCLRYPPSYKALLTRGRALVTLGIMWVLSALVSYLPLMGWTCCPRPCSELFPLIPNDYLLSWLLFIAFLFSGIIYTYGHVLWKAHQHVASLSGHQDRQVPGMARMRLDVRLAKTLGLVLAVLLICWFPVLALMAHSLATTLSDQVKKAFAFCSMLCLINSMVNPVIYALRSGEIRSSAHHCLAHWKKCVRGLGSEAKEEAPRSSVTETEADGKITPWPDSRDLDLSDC

[6] = Ratio of drug level in brain to plasma in rat; assay type: ADME; conditions: read-out: BPR
Mus musculus [7] = test: Antipruritic activity in Crj:CD1 ICR mouse pruritic model assessed as inhibition of compound 48/80-induced scratching compound topically applied on the shaved back 15 mins prior challenge measured for 30 mins relative to control; assay type: functional

Structure (SMILES)	Activity (Mus musculus [1])	Activity (Mus musculus [2])	Activity (Mus musculus [3])	Ki (Cannabinoid receptor 1) [nM]	Activity (Mus musculus [4])	Activity (Mus musculus [5])	Ki (Cannabinoid receptor 2) [nM]	Kp [6]	inhibition (INH) (Mus musculus [7]) [%]
CC(C)(NC(=O)c1cc2c(n(CC3CCCCC3)c1=O)CCCCCC2)C(=O)NCCOCCO	Toxic	Toxic	Toxic	3.4	Toxic	Toxic	0.6		
CN(CCO)C(=O)C(C)(C)NC(=O)c1cc2c(n(CC3CCCCC3)c1=O)CCCCCC2	Toxic	Toxic	Toxic		Toxic	Toxic	0.6	0.28	
CC(C)(NC(=O)c1cc2c(n(CC3CCCCC3)c1=O)CCCCCC2)C(=O)NCC(=O)O				> 5000			2820		
CC(=O)NCCNC(=O)C(C)(C)NC(=O)c1cc2c(n(CC3CCCCC3)c1=O)CCCCCC2	Toxic	Toxic	Toxic	4.7	Toxic	Toxic	2.5		
CC(C)(NC(=O)c1cc2c(n(CC3CCCCC3)c1=O)CCCCCC2)C(=O)N1CCC(O)CC1	Toxic	Toxic	Toxic	8	Toxic	Toxic	1.1		
CC(C)(NC(=O)c1cc2c(n(CC3CCCCC3)c1=O)CCCCCC2)C(=O)NNS(C)(=O)=O	Non-toxic	Non-toxic	Non-toxic	32	Non-toxic	Non-toxic	7.3	0.02	87
CC(C)(NC(=O)c1cc2c(n(CC3CCCCC3)c1=O)CCCCCC2)C(=O)NCCCCCO	Toxic	Toxic	Toxic	5.8	Toxic	Toxic	1.2		
CC(C)(NC(=O)c1cc2c(n(CC3CCCCC3)c1=O)CCCCCC2)C(=O)NN	Toxic	Toxic	Toxic	30	Toxic	Toxic	2.8		
CC(C)(NC(=O)c1cc2c(n(CC3CCCCC3)c1=O)CCCCCC2)C(=O)NCC(N)=O	Toxic	Toxic	Toxic		Toxic	Toxic			
CN(C)CCNC(=O)C(C)(C)NC(=O)c1cc2c(n(CC3CCCCC3)c1=O)CCCCCC2				242			81		
CC(C)(NC(=O)c1cc2c(n(CC3CCCCC3)c1=O)CCCCCC2)C(=O)NCCCO	Toxic	Toxic	Toxic	6.3	Toxic	Toxic	1		
CC(C)(NC(=O)c1cc2c(n(CC3CCCCC3)c1=O)CCCCCC2)C(=O)N1CCC(C(N)=O)CC1	Toxic	Toxic	Toxic	4.9	Toxic	Toxic	3		
CC(C)(NC(=O)c1cc2c(n(CC3CCCCC3)c1=O)CCCCCC2)C(=O)N1CCC(NS(C)(=O)=O)CC1	Non-toxic	Non-toxic	Non-toxic		Non-toxic	Non-toxic			
CC(C)(NC(=O)c1cc2c(n(CC3CCCCC3)c1=O)CCCCCC2)C(=O)N1CCC(C(=O)O)CC1				2970			377		
CC(C)(NC(=O)c1cc2c(n(CC3CCCCC3)c1=O)CCCCCC2)C(=O)N1CCC(C(=O)NS(C)(=O)=O)CC1				218			128		
COC(=O)C(C)(C)NC(=O)c1cc2c(n(CC3CCCCC3)c1=O)CCCCCC2	Toxic	Toxic	Toxic	1.7	Toxic	Toxic	0.3	3.35	
